This is an account of results in US20250019401A1, “ANTIMICROBIAL PEPTIDE BOLESPLEENIN OF BOLEOPHTHALMUS PECTINIROSTRIS AND APPLICATION THEREOF” (Xiamen University, priority 2023, published 2025).

Where a SMILES comes first, the peptide text is derived from it.

Common to all, as to assay type: cell-based
The test system of one assay is Acinetobacter baumannii. From the text: (§1) Bacterial strains involved in Embodiment 2 are as follows: Staphylococcus aureus, Acinetobacter baumannii, Escherichia coli, Enterococcus faecium, Enterococcus faecalis, Pseudomonas aeruginosa, Cryptococcus neoformans, Fusarium oxysporum, Aspergillus flavus, and Fusarium solani.
(§2) The bacterial strains are purchased from the China General Microbiological Culture Collection Center (CGMCC).
(§3) A specific analysis method of this embodiment is as follows:
(§4) (1) The conserved strains are coated on a nutrient broth plate, a Yeast Extract Peptone Dextrose (YPD) plate, or a potato dextrose plate and are inverted and incubated for 1-7 days.
(§5) (2) Colonies are picked from the plates, inoculated on a slant with a corresponding medium, continually incubated for 1-7 days, and washed down from the slant with corresponding medium with 10 mMol/L (mM) of sodium phosphate buffer (pH=7.4), and concentrations of suspensions of the bacteria or suspensions of the fungi are adjusted. The suspensions of the bacteria are diluted so that final concentrations are 5×10^5 CFU/mL. Mold spores of the suspensions of the fungi are counted under an optical microscope using a hemocyte counting plate, and concentrations of mold spores are adjusted to final concentrations of 5×10^4 spores/mL.
(§6) (3) Powder of the synthesized antimicrobial peptide Bolespleenin is dissolved in sterilized distillation-distillation H2O (ddH2O), filtered through a 0.22 μm filter membrane, and concentrations of the antimicrobial peptide Bolespleenin are then diluted to 3 μM, 6 μM, 12 μM, 24 μM, 48 μM, 96 μM, and 192 μM, and placed on ice for use.
(§7) (4) A blank control group, a negative control group, and an experimental group of each of the bacteria and the fungi to be tested are set on 96-well cell culture plates, and each of the blank control group, the negative control group, and the experimental group has three parallel samples.
(§8) The blank control group a: 50 μL of the antimicrobial peptide Bolespleenin with 50 μL of the corresponding medium;
(§9) The negative control group b: 50 μL of the sterilized ddH2O with 50 μL of each of the suspensions of the bacteria or the suspensions of the fungi; and
(§10) The experimental group c: 50 μL of the antimicrobial peptide Bolespleenin with 50 μL of each of the suspensions of the bacteria or the suspensions of the fungi.
(§11) (5) The 96-well cell culture plates are plated in an incubator at 28° C. and incubated for 1-2 days, and MIC results of the experimental group are observed. The experimental group is mixed by blowing, an appropriate amount of each of the suspensions of the bacteria or the suspensions of the fungi is sucked up, added dropwise onto the plate with the corresponding medium, and inverted and incubated at an appreciate temperature for 1-2 days, and MBC results are observed.

In another assay the test system is Aspergillus flavus.
Source text: as §1, §2, §3, §4, §5, §6, §7, §8, §9, §10, §11

For a further assay, the system named is Cryptococcus neoformans.
Source text: as §1, §2, §3, §4, §5, §6, §7, §8, §9, §10, §11

A further assay concerns Enterococcus faecalis.
Source text: as §1, §2, §3, §4, §5, §6, §7, §8, §9, §10, §11

The test system of another assay is Fusarium oxysporum.
Source text: as §1, §2, §3, §4, §5, §6, §7, §8, §9, §10, §11

The subject of a further assay is Staphylococcus aureus.
Source text: as §1, §2, §3, §4, §5, §6, §7, §8, §9, §10, §11

A further assay relates to Fusarium solani.
Source text: as §1, §2, §3, §4, §5, §6, §7, §8, §9, §10, §11

A further assay concerns Escherichia coli.
Source text: as §1, §2, §3, §4, §5, §6, §7, §8, §9, §10, §11

The next assay deals with Enterococcus faecium.
Source text: as §1, §2, §3, §4, §5, §6, §7, §8, §9, §10, §11

A further assay concerns Pseudomonas aeruginosa.
Source text: as §1, §2, §3, §4, §5, §6, §7, §8, §9, §10, §11

`CC[C@H](C)[C@H](NC(=O)[C@@H](N)CC(C)C)C(=O)NCC(=O)N[C@@H](CC(C)C)C(=O)N[C@@H](Cc1ccc(O)cc1)C(=O)N[C@@H](CC(C)C)C(=O)N[C@@H](CC(C)C)C(=O)N[C@@H](Cc1c[nH]cn1)C(=O)N[C@@H](CCCNC(=N)N)C(=O)N[C@@H](CCCNC(=N)N)C(=O)N[C@@H](CCCNC(=N)N)C(=O)N[C@@H](CCCNC(=N)N)C(=O)N[C@@H](CCCNC(=N)N)C(=O)N[C@@H](Cc1c[nH]cn1)C(=O)O` [Bolespleenin, Leu-Ile-Gly-Leu-Tyr-Leu-Leu-His-Arg-Arg-Arg-Arg-Arg-His] (H-LIGLYLLHRRRRRH-OH): the “MBC (a-b)” value is 1.5 to 3 µM against Acinetobacter baumannii; 24 to 48 µM against Aspergillus flavus; under 1.5 µM against Cryptococcus neoformans; 3 to 6 µM with Enterococcus faecalis; 3 to 6 µM in the assay with Fusarium oxysporum; 1.5 to 3 µM against Staphylococcus aureus. Moreover, the “MBC (a-b)” value against Fusarium solani was 3 to 6 µM; against Escherichia coli, 6 to 12 µM; in the assay on Enterococcus faecium it was 1.5 to 3 µM; against Pseudomonas aeruginosa, 1.5 to 3 µM. Further, the “MIC (a-b)” value was 1.5 to 3 µM with Acinetobacter baumannii; 6 to 12 µM against Aspergillus flavus; under 1.5 µM with Cryptococcus neoformans; 3 to 6 µM with Enterococcus faecalis; 3 to 6 µM in the assay on Fusarium oxysporum; under 1.5 µM in the assay with Staphylococcus aureus. Also, the “MIC (a-b)” value in the assay on Fusarium solani was 3 to 6 µM; against Escherichia coli it was 3 to 6 µM; against Enterococcus faecium, 1.5 to 3 µM; in the assay with Pseudomonas aeruginosa, under 1.5 µM.
